# In article PMC6193938, “Characterization of a novel AICARFT inhibitor which potently elevates ZMP and has anti-tumor activity in murine models” (Scientific Reports, 2018):
# Assays:
# Assay type in all cases: biochemical
# protein kinase = experiment: Panel of protein kinase assays at CEREP Panlabs (Eurofins), overall
# FGR = molecular target: T1, FGR (Homo sapiens, UniProt P09769); experiment: CEREP protein kinase assay
# T1 construct: purchased CEREP Panlabs (Eurofins)
# FAK = molecular target: T2, FAK (Homo sapiens, UniProt Q05397); experiment: CEREP protein kinase assay
# T2 construct: purchased CEREP Panlabs (Eurofins)
# TNK2 = molecular target: T3, TNK2 (Homo sapiens, UniProt Q07912); experiment: CEREP protein kinase assay
# T3 construct: purchased CEREP Panlabs (Eurofins)
# PKAa = molecular target: T4, PKAa (Homo sapiens, UniProt P17612); experiment: CEREP protein kinase assay
# T4 construct: purchased CEREP Panlabs (Eurofins)
# LIMK1 = molecular target: T5, LIMK1 (Homo sapiens, UniProt P53667); experiment: CEREP protein kinase assay
# T5 construct: purchased CEREP Panlabs (Eurofins)
# FLT3 = molecular target: T6, FLT3 (Homo sapiens, UniProt P36888); experiment: CEREP protein kinase assay
# T6 construct: purchased CEREP Panlabs (Eurofins)
# T6 sequence (P36888 27-993): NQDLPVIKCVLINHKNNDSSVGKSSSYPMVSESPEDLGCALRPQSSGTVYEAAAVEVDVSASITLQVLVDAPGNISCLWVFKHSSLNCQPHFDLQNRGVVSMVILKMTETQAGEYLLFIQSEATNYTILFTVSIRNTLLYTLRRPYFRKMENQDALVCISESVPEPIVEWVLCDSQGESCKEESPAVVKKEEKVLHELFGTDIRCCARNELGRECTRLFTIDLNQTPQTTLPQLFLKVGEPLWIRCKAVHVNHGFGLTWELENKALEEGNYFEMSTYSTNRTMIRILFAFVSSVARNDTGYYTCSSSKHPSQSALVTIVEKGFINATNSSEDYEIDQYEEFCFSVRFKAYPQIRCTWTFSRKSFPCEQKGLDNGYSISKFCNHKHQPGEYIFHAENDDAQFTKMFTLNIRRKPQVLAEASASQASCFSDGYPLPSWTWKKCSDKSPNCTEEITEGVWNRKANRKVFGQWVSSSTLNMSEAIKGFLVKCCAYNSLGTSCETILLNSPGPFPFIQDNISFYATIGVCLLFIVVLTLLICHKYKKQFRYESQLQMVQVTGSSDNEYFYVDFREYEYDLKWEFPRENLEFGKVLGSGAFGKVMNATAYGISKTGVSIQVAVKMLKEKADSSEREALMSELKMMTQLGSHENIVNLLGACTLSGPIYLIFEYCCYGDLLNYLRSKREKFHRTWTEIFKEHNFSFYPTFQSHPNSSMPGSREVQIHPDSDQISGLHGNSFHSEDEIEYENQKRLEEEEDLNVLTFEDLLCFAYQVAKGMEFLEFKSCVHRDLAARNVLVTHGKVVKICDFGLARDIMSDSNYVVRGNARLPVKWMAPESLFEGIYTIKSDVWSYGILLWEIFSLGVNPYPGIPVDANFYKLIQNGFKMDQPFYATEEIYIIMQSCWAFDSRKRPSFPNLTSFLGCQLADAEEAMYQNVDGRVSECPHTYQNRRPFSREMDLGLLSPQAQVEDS
# CHK2 = molecular target: T7, CHK2 (Homo sapiens, UniProt O96017); experiment: CEREP protein kinase assay
# T7 construct: purchased CEREP Panlabs (Eurofins)
# CDK4 = molecular target: T8, CDK4 (Homo sapiens, UniProt P11802); experiment: CEREP protein kinase assay
# T8 construct: purchased CEREP Panlabs (Eurofins)
# DYRK2 = molecular target: T9, DYRK2 (Homo sapiens, UniProt Q92630); experiment: CEREP protein kinase assay
# T9 construct: purchased CEREP Panlabs (Eurofins)
# T9 sequence (Q92630 1-601): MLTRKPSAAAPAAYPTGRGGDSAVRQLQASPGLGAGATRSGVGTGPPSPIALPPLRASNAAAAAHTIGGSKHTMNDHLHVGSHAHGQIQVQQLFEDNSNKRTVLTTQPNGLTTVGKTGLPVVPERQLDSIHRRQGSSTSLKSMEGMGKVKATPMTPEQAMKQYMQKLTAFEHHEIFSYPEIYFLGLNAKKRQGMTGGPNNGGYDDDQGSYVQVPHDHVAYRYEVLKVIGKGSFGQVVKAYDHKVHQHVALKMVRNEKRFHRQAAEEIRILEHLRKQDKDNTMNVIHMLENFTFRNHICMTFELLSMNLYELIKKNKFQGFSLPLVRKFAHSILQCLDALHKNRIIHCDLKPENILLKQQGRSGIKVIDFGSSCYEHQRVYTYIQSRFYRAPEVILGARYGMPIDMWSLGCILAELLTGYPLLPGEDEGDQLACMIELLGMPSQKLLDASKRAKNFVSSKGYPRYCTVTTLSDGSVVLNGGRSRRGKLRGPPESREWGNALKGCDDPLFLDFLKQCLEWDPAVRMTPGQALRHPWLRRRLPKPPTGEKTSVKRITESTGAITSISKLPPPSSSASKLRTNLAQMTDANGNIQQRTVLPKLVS
# MNK2 = molecular target: T10, MNK2 (Homo sapiens, UniProt Q9HBH9); experiment: CEREP protein kinase assay
# T10 construct: purchased CEREP Panlabs (Eurofins)
# CK2 = molecular target: T11, CK2 (Homo sapiens, UniProt P68400); experiment: CEREP protein kinase assay
# T11 construct: purchased CEREP Panlabs (Eurofins)
# ERK2 = molecular target: T12, ERK2 (Homo sapiens, UniProt P28482); experiment: CEREP protein kinase assay
# T12 construct: purchased CEREP Panlabs (Eurofins)
# T12 sequence (P28482 whole entry): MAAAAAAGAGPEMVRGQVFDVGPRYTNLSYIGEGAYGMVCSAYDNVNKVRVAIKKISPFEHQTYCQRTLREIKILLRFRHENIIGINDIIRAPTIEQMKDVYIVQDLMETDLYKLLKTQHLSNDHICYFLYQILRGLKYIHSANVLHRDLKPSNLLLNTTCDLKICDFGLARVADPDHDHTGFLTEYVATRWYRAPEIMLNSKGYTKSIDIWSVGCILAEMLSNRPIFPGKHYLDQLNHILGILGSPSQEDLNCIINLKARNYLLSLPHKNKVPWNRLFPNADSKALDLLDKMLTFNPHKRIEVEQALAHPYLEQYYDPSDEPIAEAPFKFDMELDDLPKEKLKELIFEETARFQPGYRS
# T11 sequence (P68400 whole entry): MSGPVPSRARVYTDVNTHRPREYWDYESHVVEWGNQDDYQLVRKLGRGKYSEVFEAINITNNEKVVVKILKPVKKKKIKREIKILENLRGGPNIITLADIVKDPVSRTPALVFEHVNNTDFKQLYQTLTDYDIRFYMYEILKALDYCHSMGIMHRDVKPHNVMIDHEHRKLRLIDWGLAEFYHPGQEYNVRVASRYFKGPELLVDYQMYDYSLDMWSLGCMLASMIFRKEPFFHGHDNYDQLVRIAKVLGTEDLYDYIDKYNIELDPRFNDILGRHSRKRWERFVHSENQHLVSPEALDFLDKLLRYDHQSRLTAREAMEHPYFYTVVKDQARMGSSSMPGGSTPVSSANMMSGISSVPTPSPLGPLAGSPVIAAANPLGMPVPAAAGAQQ
# T7 sequence (O96017 whole entry): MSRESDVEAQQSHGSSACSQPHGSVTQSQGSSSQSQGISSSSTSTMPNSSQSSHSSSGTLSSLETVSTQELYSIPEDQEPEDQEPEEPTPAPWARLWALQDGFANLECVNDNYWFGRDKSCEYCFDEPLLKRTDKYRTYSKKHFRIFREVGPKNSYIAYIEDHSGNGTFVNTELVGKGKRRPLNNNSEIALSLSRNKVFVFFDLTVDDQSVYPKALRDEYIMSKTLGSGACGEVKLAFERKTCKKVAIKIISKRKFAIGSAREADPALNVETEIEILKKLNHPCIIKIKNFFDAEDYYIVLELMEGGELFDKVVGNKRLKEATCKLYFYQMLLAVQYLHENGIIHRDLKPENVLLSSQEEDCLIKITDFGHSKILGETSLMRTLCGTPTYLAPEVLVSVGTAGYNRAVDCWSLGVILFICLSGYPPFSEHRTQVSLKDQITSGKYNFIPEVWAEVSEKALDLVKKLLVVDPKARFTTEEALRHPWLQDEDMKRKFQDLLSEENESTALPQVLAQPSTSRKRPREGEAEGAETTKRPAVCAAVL
# T1 sequence (P09769 whole entry): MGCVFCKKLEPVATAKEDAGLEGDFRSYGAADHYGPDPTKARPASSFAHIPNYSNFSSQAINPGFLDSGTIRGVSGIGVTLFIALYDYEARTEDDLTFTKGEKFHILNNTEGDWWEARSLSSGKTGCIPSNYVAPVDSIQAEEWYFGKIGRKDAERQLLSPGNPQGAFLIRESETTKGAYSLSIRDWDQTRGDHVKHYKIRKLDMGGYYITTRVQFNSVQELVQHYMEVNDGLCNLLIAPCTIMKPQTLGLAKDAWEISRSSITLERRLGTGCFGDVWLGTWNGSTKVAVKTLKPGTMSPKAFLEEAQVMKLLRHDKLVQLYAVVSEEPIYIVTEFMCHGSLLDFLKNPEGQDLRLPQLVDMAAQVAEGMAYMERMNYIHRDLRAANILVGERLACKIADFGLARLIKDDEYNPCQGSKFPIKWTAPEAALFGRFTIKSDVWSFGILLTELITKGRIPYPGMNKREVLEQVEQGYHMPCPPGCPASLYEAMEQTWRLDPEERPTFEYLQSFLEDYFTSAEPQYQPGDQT
# T3 sequence (Q07912 whole entry): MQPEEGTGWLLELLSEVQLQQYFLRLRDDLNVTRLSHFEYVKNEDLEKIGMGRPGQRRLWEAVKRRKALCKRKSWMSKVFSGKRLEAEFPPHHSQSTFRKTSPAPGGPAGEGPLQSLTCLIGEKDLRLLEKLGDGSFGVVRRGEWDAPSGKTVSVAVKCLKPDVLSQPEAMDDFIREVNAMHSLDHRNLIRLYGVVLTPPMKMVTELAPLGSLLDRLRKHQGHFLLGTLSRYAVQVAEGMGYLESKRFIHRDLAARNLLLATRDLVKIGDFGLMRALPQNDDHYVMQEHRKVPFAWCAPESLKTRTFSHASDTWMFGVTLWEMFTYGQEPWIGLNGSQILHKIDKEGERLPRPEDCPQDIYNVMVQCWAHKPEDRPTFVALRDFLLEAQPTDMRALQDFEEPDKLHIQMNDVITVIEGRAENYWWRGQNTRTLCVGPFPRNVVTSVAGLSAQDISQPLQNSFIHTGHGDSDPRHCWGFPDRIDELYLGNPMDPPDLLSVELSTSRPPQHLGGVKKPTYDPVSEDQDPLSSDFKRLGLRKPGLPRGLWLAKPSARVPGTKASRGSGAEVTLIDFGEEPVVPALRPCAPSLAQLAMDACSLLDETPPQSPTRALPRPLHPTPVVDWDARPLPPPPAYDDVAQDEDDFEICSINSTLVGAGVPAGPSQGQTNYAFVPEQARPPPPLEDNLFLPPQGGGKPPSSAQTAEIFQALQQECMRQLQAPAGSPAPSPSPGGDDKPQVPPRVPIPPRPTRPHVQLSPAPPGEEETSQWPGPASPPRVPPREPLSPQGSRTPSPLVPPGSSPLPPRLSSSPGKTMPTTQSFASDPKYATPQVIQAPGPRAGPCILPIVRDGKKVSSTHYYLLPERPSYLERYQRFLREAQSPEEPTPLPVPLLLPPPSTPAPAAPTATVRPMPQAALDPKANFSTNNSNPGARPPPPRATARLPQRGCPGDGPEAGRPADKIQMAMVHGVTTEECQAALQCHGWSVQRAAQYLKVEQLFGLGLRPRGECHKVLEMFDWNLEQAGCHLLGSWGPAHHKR
# T8 sequence (P11802 whole entry): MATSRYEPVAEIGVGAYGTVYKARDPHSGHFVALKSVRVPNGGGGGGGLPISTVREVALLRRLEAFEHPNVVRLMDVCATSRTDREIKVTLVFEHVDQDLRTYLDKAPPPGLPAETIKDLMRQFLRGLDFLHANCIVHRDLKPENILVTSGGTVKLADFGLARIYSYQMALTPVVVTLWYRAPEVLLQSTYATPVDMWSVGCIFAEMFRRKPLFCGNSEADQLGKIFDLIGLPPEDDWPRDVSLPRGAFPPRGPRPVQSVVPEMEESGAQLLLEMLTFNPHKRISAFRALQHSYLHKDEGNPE
# T8 sequence (P24385 whole entry partner): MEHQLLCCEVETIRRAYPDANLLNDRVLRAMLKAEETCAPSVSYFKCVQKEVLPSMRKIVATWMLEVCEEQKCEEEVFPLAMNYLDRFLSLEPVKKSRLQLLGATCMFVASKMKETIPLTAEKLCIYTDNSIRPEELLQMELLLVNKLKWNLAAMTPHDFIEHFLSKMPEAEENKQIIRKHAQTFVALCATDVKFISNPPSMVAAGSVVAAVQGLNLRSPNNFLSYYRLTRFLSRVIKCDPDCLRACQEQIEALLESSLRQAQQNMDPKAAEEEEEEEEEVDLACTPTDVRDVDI
# T10 sequence (Q9HBH9 whole entry): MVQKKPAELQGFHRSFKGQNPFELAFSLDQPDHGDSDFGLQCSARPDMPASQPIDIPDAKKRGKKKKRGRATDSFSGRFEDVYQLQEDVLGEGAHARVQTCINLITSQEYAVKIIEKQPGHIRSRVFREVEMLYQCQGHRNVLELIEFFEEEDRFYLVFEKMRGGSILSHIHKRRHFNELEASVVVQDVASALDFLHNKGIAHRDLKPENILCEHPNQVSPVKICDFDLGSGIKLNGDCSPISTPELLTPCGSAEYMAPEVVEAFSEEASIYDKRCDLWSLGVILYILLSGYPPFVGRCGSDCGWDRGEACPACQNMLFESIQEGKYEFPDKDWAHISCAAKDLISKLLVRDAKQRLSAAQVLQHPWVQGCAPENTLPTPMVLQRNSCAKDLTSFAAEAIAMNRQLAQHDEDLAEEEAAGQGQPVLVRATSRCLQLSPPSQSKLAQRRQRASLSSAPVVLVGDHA
# T2 sequence (Q05397 whole entry): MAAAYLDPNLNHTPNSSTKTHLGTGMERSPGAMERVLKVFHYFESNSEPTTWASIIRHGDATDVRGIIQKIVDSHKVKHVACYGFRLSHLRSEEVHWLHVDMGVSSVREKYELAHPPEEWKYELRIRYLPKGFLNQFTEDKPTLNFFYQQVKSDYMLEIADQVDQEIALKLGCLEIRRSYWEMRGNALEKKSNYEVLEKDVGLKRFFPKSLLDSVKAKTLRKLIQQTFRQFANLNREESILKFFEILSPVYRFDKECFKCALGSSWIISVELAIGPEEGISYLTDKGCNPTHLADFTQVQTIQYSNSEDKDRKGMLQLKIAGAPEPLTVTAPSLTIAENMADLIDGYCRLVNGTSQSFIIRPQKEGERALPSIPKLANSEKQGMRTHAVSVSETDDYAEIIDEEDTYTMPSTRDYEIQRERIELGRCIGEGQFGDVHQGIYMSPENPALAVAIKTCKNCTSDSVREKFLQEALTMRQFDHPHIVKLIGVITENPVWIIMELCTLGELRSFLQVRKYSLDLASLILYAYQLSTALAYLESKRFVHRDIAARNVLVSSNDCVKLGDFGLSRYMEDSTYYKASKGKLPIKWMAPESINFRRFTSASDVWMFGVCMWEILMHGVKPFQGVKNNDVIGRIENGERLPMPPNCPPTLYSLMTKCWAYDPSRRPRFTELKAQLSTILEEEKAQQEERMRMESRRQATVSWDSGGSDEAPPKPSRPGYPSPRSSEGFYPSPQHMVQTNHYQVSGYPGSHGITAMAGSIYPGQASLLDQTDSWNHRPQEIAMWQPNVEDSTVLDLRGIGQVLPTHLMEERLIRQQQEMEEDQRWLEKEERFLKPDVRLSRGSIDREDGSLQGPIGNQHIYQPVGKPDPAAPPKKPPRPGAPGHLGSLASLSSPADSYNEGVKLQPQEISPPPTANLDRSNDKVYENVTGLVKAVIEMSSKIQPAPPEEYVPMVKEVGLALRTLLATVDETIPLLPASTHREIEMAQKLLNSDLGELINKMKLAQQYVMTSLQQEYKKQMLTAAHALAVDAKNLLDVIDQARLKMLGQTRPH
structure (smiles),measurement,setting,value
"O=c1[nH]ccc2cc(F)c(NS(=O)(=O)c3ccc(N4CC[C@@H](O)C4)s3)cc12 [LSN3213128, N-(6-Fluoro-1-oxo-1,2-dihydroisoquinolin-7-yl)-5-[(3R)-3-hydroxypyrrolidin-1-yl]thiophene-2-sulfonamide]","protein kinase activity, panel",protein kinase,no significant protein kinase activity
same,inhibition at 0.2 µM,FGR; @ 0.2 uM,-8.47%
same,inhibition at 2 µM,FGR; @ 2 uM,3.62%
same,inhibition at 20 µM,FGR; @ 20 uM,42.3%
same,inhibition at 0.2 µM,FAK; @ 0.2 uM,-12.7%
same,inhibition at 2 µM,FAK; @ 2 uM,-4.84%
same,inhibition at 20 µM,FAK; @ 20 uM,40.1%
same,inhibition at 0.2 µM,TNK2; @ 0.2 uM,-2.49%
same,inhibition at 2 µM,TNK2; @ 2 uM,16.4%
same,inhibition at 20 µM,TNK2; @ 20 uM,52.5%
same,inhibition at 0.2 µM,PKAa; @ 0.2 uM,-7.44%
same,inhibition at 2 µM,PKAa; @ 2 uM,-0.808%
same,inhibition at 20 µM,PKAa; @ 20 uM,3.8%
same,inhibition at 0.2 µM,LIMK1; @ 0.2 uM,-7.18%
same,inhibition at 2 µM,LIMK1; @ 2 uM,5.89%
same,inhibition at 20 µM,LIMK1; @ 20 uM,0.523%
same,inhibition at 0.2 µM,FLT3; @ 0.2 uM,-12.1%
same,inhibition at 2 µM,FLT3; @ 2 uM,10.7%
same,inhibition at 20 µM,FLT3; @ 20 uM,53.2%
same,inhibition at 0.2 µM,CHK2; @ 0.2 uM,-9.59%
same,inhibition at 2 µM,CHK2; @ 2 uM,14.3%
same,inhibition at 20 µM,CHK2; @ 20 uM,8.93%
same,inhibition at 0.2 µM,CDK4; @ 0.2 uM,-1.51%
same,inhibition at 2 µM,CDK4; @ 2 uM,2.45%
same,inhibition at 20 µM,CDK4; @ 20 uM,37.2%
same,inhibition at 0.2 µM,DYRK2; @ 0.2 uM,-2.01%
same,inhibition at 2 µM,DYRK2; @ 2 uM,-0.829%
same,inhibition at 20 µM,DYRK2; @ 20 uM,11.7%
same,inhibition at 0.2 µM,MNK2; @ 0.2 uM,-1.93%
same,inhibition at 2 µM,MNK2; @ 2 uM,4.7%
same,inhibition at 20 µM,MNK2; @ 20 uM,5.92%
same,inhibition at 0.2 µM,CK2; @ 0.2 uM,-7.53%
same,inhibition at 2 µM,CK2; @ 2 uM,-0.227%
same,inhibition at 20 µM,CK2; @ 20 uM,1.58%
same,inhibition at 0.2 µM,ERK2; @ 0.2 uM,-4.25%
same,inhibition at 2 µM,ERK2; @ 2 uM,11.1%
same,inhibition at 20 µM,ERK2; @ 20 uM,60.3%
